Test system: MAT2A mRNA splicing in MDA-MB-231 cells
Assay: MAT2A splicing by RT-qPCR, MDA-MB-231
Type: cell-based, human
Conditions: 50 μM, 24 h, 45 potassium salt used
Experimental: MDA-MB-231 cells and A549 cells were seeded into 6-well plates at 70% confluency and cultured overnight. Afterward they were treated with compound 45 potassium salt for 24 h. After the compound treatment, the cell culture medium was discarded and cells were washed with DPBS three times. The total RNA was then purified using RNeasy Mini Kit (Qiagen 74106) following the manufacturer’s protocol.
The reverse transcription was performed by using High-Capacity cDNA Reverse Transcription Kits (Thermo Fisher 4368814) with 500 ng of total RNA. qPCR was performed using PowerUp SYBR Green Master Mix (Thermo Fisher, A25742) with a 10 μL volume. The cycling was performed using Bio-Rad CFX96 Real-Time PCR Detection System following the standard cycling mode (primer Tm ≥ 60 °C) on the manufacturer’s protocol. The p value was calculated using GraphPad Prism software’s one-way ANOVA analysis.

CN1C(=O)C(=C2SC(NS(=O)(=O)c3ccc(C(=O)O)cc3)=NC2=O)c2cc(Br)ccc21 [Compound 45]
MAT2A splicing, in words: promoted MAT2A splicing
